Results on eight molecules are retold here after ChEMBL document CHEMBL3352818, “Seizure prevention by the naturally occurring phenols, carvacrol and thymol in a partial seizure-psychomotor model” (Bioorg Med Chem Lett, 2014).

As a reminder, the TD50 is the dose at which the toxic effect under study appears in half of the subjects. The low end stands for harm at a small dose, the high end for harm only at a large dose. As a reminder, the ED50 is the dose at which the effect has come halfway, by size or by number of responders. Lower therefore signals an effect at a small dose. As usually defined, the inhibition in vivo is how much of the control response was suppressed.

The source made the active and inactive calls. The rule behind the calls is not given here.

Data set [1] concerns Mus musculus. In words: Neurotoxicity in CF1 albino mouse seizure model at 100 mg/kg, ip after 4 hrs by rototod test. It counts as toxicity, organism-based. Further details: dose 100 mg/kg, route intraperitoneal. To be noted: in vivo.
For data set [2], the system named is Mus musculus. In words: Anticonvulsant activity in CF1 albino mouse assessed as protection against maximal electroshock-induced seizures at 100 mg/kg, ip after 0.25 hrs. It counts as functional, organism-based. Further details: dose 100 mg/kg. On the technique in general: The maximal electroshock test induces tonic seizures with an electrical stimulus.
Data set [3] concerns Mus musculus. The data set can be described thus: Neurotoxicity in CF1 albino mouse seizure model at 100 mg/kg, ip after 2 hrs by rototod test. The class given is toxicity, organism-based. Further details: dose 100 mg/kg, route intraperitoneal. To be noted: in vivo.
Data set [4] in a line: Neurotoxicity in ip dosed CF1 albino mouse seizure model after 4 hr by rototod test. The class given is toxicity, organism-based. To be noted: in vivo.
Data set [5] concerns Mus musculus. In words: Anticonvulsant activity in CF1 albino mouse assessed as protection against maximal electroshock-induced seizures at 100 mg/kg, ip after 0.5 hrs. The class given is functional, organism-based. Further details: dose 100 mg/kg.
The nature of data set [6]: Protective index, ratio of TD50 for CF1 albino mouse neurotoxicity to ED50 for protection against 6 Hz electroshock-induced seizure in CF1 albino mouse. To be noted: in vivo, read-out: Ratio TD50/ED50. The class given is toxicity, organism-based.
Data set [7] concerns Mus musculus. In words: Anticonvulsant activity against ip dosed CF1 albino mouse seizure model after 4 hrs by 6 Hz psychomotor seizure test. It counts as functional.
The subject of data set [8] is Mus musculus. In words: Anticonvulsant activity in CF1 albino mouse assessed as protection against maximal electroshock-induced seizures at 100 mg/kg, ip after 1 hrs. Further details: dose 100 mg/kg. The class given is functional, organism-based.
The test system of data set [9] is Mus musculus. In words: Anticonvulsant activity against CF1 albino mouse seizure model assessed as time to peak effect at 100 mg/kg, ip by 6 Hz psychomotor seizure test. To be noted: route intraperitoneal. It counts as functional.
The subject of data set [10] is Mus musculus. The data set can be described thus: Neurotoxicity in CF1 albino mouse seizure model assessed as time to peak toxic effect at 100 mg/kg, ip after 4 hr by rototod test. The class given is toxicity, organism-based. Further details: dose 100 mg/kg, route intraperitoneal. To be noted: in vivo.
In data set [11] the test system is Mus musculus. In words: Anticonvulsant activity in CF1 albino mouse assessed as protection against maximal electroshock-induced seizures at 100 mg/kg, ip after 2 hrs. It counts as functional, organism-based. Further details: dose 100 mg/kg.
The subject of data set [12] is Mus musculus. The data set can be described thus: Reduction Li-pilocarpine-induced weight loss in non-protected CF1 albino mouse at 65 mg/kg, ip after 0.5 hrs. Further details: dose 65 mg/kg. The class given is functional, organism-based.
In data set [13] the test system is Mus musculus. The data set can be described thus: Neurotoxicity in CF1 albino mouse seizure model at 100 mg/kg, ip after 1 hrs by rototod test. It counts as toxicity, organism-based. Further details: dose 100 mg/kg, route intraperitoneal. To be noted: in vivo.
Data set [14] concerns Mus musculus. In words: Anticonvulsant activity in CF1 albino mouse assessed as protection against pentylenetetrazole-induced seizure at 100 mg/kg, ip after 4 hrs by scMET test. The class given is functional, organism-based. Further details: dose 100 mg/kg.
The subject of data set [15] is Mus musculus. The data set can be described thus: Anticonvulsant activity in CF1 albino mouse assessed as protection against pentylenetetrazole-induced seizure at 100 mg/kg, ip after 2 hrs by scMET test. It counts as functional, organism-based. Further details: dose 100 mg/kg.
Data set [16] relates to Mus musculus. The data set can be described thus: Reduction Li-pilocarpine-induced weight loss in protected CF1 albino mouse at 65 mg/kg, ip after 0.5 hrs. Further details: dose 65 mg/kg. It counts as functional, organism-based.
Data set [17] has as its system Mus musculus. The data set can be described thus: Neurotoxicity in CF1 albino mouse seizure model at 100 mg/kg, ip after 0.25 hrs by rototod test. It counts as toxicity, organism-based. Further details: dose 100 mg/kg, route intraperitoneal. To be noted: in vivo.
Data set [18] has as its system Mus musculus. In words: Anticonvulsant activity in CF1 albino mouse assessed as protection against pentylenetetrazole-induced seizure at 100 mg/kg, ip after 0.25 hrs by scMET test. It counts as functional, organism-based. Further details: dose 100 mg/kg.
For data set [19], the system named is Mus musculus. The data set can be described thus: Anticonvulsant activity in CF1 albino mouse assessed as protection against pentylenetetrazole-induced seizure at 100 mg/kg, ip after 1 hrs by scMET test. The class given is functional, organism-based. Further details: dose 100 mg/kg.
The subject of data set [20] is Mus musculus. In words: Neurotoxicity in CF1 albino mouse seizure model at 100 mg/kg, ip after 0.5 hrs by rototod test. The class given is toxicity, organism-based. Further details: dose 100 mg/kg, route intraperitoneal. To be noted: in vivo.
Data set [21] has as its system Mus musculus. In words: Anticonvulsant activity against CF1 albino mouse seizure model assessed as protection at 100 mg/kg, ip after 1 hrs by 6 Hz psychomotor seizure test. It counts as functional, organism-based. Further details: dose 100 mg/kg.
In data set [22] the test system is Mus musculus. In words: Anticonvulsant activity against CF1 albino mouse seizure model assessed as protection at 100 mg/kg, ip after 0.5 hrs by 6 Hz psychomotor seizure test. The class given is functional, organism-based. Further details: dose 100 mg/kg.
The subject of data set [23] is Mus musculus. The data set can be described thus: Anticonvulsant activity in CF1 albino mouse assessed as protection against maximal electroshock-induced seizures at 100 mg/kg, ip after 4 hrs. It counts as functional.
Data set [24] has as its system Mus musculus. The data set can be described thus: Anticonvulsant activity in CF1 albino mouse assessed as protection against pentylenetetrazole-induced seizure at 100 mg/kg, ip after 0.5 hrs by scMET test. The class given is functional, organism-based. Further details: dose 100 mg/kg.
Data set [25] deals with Mus musculus. The data set can be described thus: Anticonvulsant activity in CF1 albino mouse assessed as protection against pentylenetetrazole-induced seizure at 200 mg/kg, ip after 4 hrs by scMET test. It counts as functional. To be noted: route intraperitoneal.
Data set [26] concerns Mus musculus. In words: Anticonvulsant activity in CF1 albino mouse assessed as protection against Li-pilocarpine-induced seizure at 65 mg/kg, ip. Further details: dose 65 mg/kg. It counts as functional, organism-based.
In data set [27] the test system is Mus musculus. The data set can be described thus: Anticonvulsant activity against CF1 albino mouse seizure model assessed as protection at 100 mg/kg, ip after 0.25 hrs by 6 Hz psychomotor seizure test. The class given is functional, organism-based. Further details: dose 100 mg/kg.
The subject of data set [28] is Mus musculus. In words: Anticonvulsant activity against CF1 albino mouse seizure model assessed as protection at 100 mg/kg, ip after 4 hrs by 6 Hz psychomotor seizure test. It counts as functional, organism-based. Further details: dose 100 mg/kg.

For `CC(C)c1ccccc1O`, the Activity result in data set [1], in [3] and in data set [13] was “Non-toxic” in each case. Besides, the result in [2], in data set [5], in [8], in [11], in data set [14] and in [15] was inactive. The molecule further came in with a TD50 at 4 h in [4] of 142 mg/kg. The selectivity ratio in data set [6] was 2.8. The ED50 in data set [7] amounted to 49.9 mg/kg. Further, the figures for the Time in [9] and in [10] were 0.25 h and 4 h, respectively. The inhibition entry in data set [12] and in [16] was “inactive” in each case.

In the case of `CC(C)c1cccc(O)c1`, the Activity result in data set [17], in data set [1] and in data set [20] was “Non-toxic” each time. In addition, the result in [2], in data set [5], in data set [18], in data set [19], in data set [14] and in [15] was inactive. Besides, the outcome in data set [22] was inactive. The molecule further had a TD50 at 4 h in data set [4] of 129 mg/kg. The selectivity ratio in [6] worked out at 2.4. Also, it took a dose of 53.8 mg/kg to reach the 50% effect level in [7] (ED50). The figures for the Time in [9] and in data set [10] were 0.25 h and 4 h, respectively. For the same molecule, the result in data set [21] was Active.

As to `NC(=O)N1c2ccccc2C=Cc2ccccc21` [CARBAMAZEPINE], the ED50 in data set [7] was 47.9 mg/kg.

As to `Cc1ccc(C(C)C)cc1O` [CARVACROL], the Activity entry in data set [17], in data set [1], in data set [3], in data set [20] and in data set [13] was “Non-toxic” throughout. In addition, the result in data set [23], in data set [2], in [5], in [18], in data set [8] and in data set [24] was inactive. Further, the result in data set [11], in data set [26], in data set [15], in data set [27] and in data set [22] was inactive. Besides, in [23] (route intraperitoneal), the inhibition in vivo at 100 mg/kg turned out to be 20%. The molecule also showed a TD50 at 4 h in data set [4] of 191 mg/kg. Further, the selectivity ratio in data set [6] was determined as 5.3. For the same molecule, it took a dose of 35.8 mg/kg to reach the 50% effect level in data set [7] (ED50). Moreover, the values for the Time in data set [9] and in data set [10] were 0.25 h and 6 h, respectively. In addition, the inhibition in vivo at 200 mg/kg in data set [25] amounted to 40%.

Consider `Cc1ccc(C(C)C)cc1` [P-CYMENE], for which, in data set [7], the ED50 turned out to be 51.3 mg/kg. For the same molecule, the Time in data set [9] amounted to 0.25 h. Further, the Activity result in data set [10] is “ND(toxic)”.

With `CC(C)c1cccc(C(C)C)c1O` [PROPOFOL], in data set [6], the selectivity ratio was found to be 1.1. For the same molecule, the ED50 in data set [7] is 32.8 mg/kg.

In the case of `Cc1ccc(C(C)C)c(O)c1` [THYMOL], the Activity result in data set [17], in [1], in data set [3], in data set [20] and in [13] was “Non-toxic” each time. For the same molecule, the TD50 at 4 h in data set [4] was determined as 121 mg/kg. Also, in data set [6], the selectivity ratio amounted to 3.4. Moreover, the ED50 in data set [7] is 35.8 mg/kg. Besides, the result in [8], in [28] and in data set [26] was inactive. The Time in data set [9] and in data set [10] was 0.25 h in each case. Moreover, in data set [27], the result was Active.

Take `CN1C(=O)OC(C)(C)C1=O` [TRIMETHADIONE]: the selectivity ratio in data set [6] came out at 3.8. The molecule further came in with an ED50 in [7] of 218 mg/kg.
